Laboratory results published in ChEMBL document CHEMBL1130090, “Antitumor agents. 174. 2',3',4',5,6,7-Substituted 2-phenyl-1,8-naphthyridin-4-ones: their synthesis, cytotoxicity, and inhibition of tubulin polymerization” (J Med Chem, 1997).

Legend:
Format in all cases: functional
[1] = target: Tubulin beta chain (Bos taurus, UniProt Q6B856); assay: Inhibition of bovine tubulin polymerization
[2] = tested on: 786-0; assay: Concentration which reduced cell growth to 50 % of level against 786-0 renal cancer line; settings: Homo sapiens
[3] = tested on: HCT-116; assay: Concentration which reduced cell growth to 50 % of level against HCT116 colon cancer cell line; settings: Homo sapiens
[4] = tested on: HL-60; assay: Concentration which reduced cell growth to 50 % of level against HL-60 (TB) leukemia cell line; settings: Homo sapiens
[5] = tested on: Tumor Cell line; assay: Cytotoxic effect in human tumor cell lines, tested by the National Cancer Institute; settings: read-out: Average LogGI50 (converted)
[6] = tested on: MDA-N; assay: Concentration which reduced cell growth to 50 % of level against MDA-N breast cancer line; settings: Homo sapiens
[7] = tested on: MDA-MB-435; assay: Concentration which reduced cell growth to 50 % of level against MDA-MB-435 breast cancer line; settings: Homo sapiens
[8] = tested on: NCI-H460; assay: Concentration which reduced cell growth to 50 % of level against NCI-H460 non -small-cell lung cancer cell line; settings: Homo sapiens
[9] = tested on: OVCAR-3; assay: Concentration which reduced cell growth to 50 % of level against OVCAR-3 ovarian cancer line; settings: Homo sapiens
[10] = tested on: PC-3; assay: Concentration which reduced cell growth to 50 % of level against PC-3 prostate cancer line; settings: Homo sapiens
[11] = tested on: SF-295; assay: Concentration which reduced cell growth to 50 % of level against SF-295 CNS cancer line; settings: Homo sapiens
[12] = tested on: SK-MEL-5; assay: Concentration which reduced cell growth to 50 % of level against SK-MEL-5 melanoma cell line; settings: Homo sapiens
[13] = tested on: U-251; assay: Concentration which reduced cell growth to 50 % of U251 cancer line; settings: Homo sapiens

Sequence of Tubulin beta chain (Q6B856 whole entry): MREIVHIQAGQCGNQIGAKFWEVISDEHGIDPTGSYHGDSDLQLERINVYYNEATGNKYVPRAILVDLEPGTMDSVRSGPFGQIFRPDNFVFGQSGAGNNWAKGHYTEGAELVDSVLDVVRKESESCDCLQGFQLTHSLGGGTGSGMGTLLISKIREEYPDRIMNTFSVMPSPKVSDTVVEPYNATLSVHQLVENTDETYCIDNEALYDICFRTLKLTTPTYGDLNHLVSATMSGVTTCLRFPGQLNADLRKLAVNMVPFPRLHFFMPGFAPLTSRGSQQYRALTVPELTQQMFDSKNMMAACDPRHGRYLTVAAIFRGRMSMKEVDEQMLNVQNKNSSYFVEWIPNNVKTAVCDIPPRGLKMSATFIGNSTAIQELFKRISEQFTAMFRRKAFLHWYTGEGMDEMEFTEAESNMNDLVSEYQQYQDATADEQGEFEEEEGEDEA

| SMILES | IC50 [1] [µM] | GI50 [2] [µM] | GI50 [3] [µM] | GI50 [4] [µM] | GI50 [5] [µM] | GI50 [6] [µM] | GI50 [7] [µM] | GI50 [8] [µM] | GI50 [9] [µM] | GI50 [10] [µM] | GI50 [11] [µM] | GI50 [12] [µM] | GI50 [13] [µM] |
| --- | --- | --- | --- | --- | --- | --- | --- | --- | --- | --- | --- | --- | --- |
| Cc1ccc(-c2cc(O)c3cc(C)cnc3n2)cc1 | 2.4 |  |  |  |  |  |  |  |  |  |  |  |  |
| COc1ccccc1-c1cc(O)c2ccc(C)nc2n1 | > 40 | > 100 | 38 | 74.1 | 79.4 | 20 | 21.9 | 97.7 | > 100 | > 100 | > 100 | 51.3 | > 100 |
| Cc1ccc(-c2cc(O)c3c(C)ccnc3n2)cc1 | 2.9 |  |  |  |  |  |  |  |  |  |  |  |  |
| COc1ccccc1-c1cc(O)c2c(C)cc(C)nc2n1 | > 40 | > 100 | 74.1 | 30.2 | 57.5 | 33.1 | 32.4 | 70.8 | 64.6 | 47.9 | 53.7 | 33.9 | > 100 |
| COc1ccccc1-c1cc(O)c2cc(C)cnc2n1 | 18 | 41.7 | 42.7 | 9.55 | 31.6 | 4.47 | 3.02 | 32.4 | 19.5 | 26.9 | 30.9 | 20.4 | 27.5 |
| COc1cccc(-c2cc(O)c3cc(Br)cnc3n2)c1 | 1.5 |  |  |  |  |  |  |  |  |  |  |  |  |
| Oc1cc(-c2ccc(Cl)cc2)nc2ncccc12 | 22 | 33.9 | 32.4 | 16.6 | 38.9 | 8.32 | 5.89 | 38 | 23.4 | 47.9 | 40.7 | 28.8 | 39.8 |
| COc1cc2c(c(OC)c1OC)-c1ccc(OC)c(=O)cc1[C@@H](NC(C)=O)CC2 [COLCHICINE] |  |  |  |  | 0.0575 |  |  |  |  |  |  |  |  |
| Cc1cc(C)c2c(O)cc(-c3ccc(F)cc3)nc2n1 | > 40 | 79.4 | 50.1 | 15.5 | 40.7 | 25.1 | 18.6 | 51.3 | 43.7 | 30.2 | 50.1 | 26.3 | 95.5 |
| Cc1ccc(-c2cc(O)c3ccc(C)nc3n2)cc1 | 4.9 |  |  |  |  |  |  |  |  |  |  |  |  |
| Oc1cc(-c2ccc(F)cc2)nc2ncc(Cl)cc12 | 16 | 32.4 | 17 | 3.89 | 21.9 | 2.95 | 2.57 | 30.2 | 17.4 | 21.9 | 21.4 | 6.61 | 29.5 |
| Oc1cc(-c2ccc(F)cc2)nc2ncccc12 | > 40 | 44.7 | 42.7 | 12.9 | 45.7 | 14.1 | 12 | 34.7 | 45.7 | 45.7 | 50.1 | 30.2 | 47.9 |
| COc1cccc(-c2cc(O)c3ccc(C)nc3n2)c1 | 0.75 |  |  |  |  |  |  |  |  |  |  |  |  |
| COc1ccc(-c2cc(O)c3c(C)ccnc3n2)cc1 | 8.8 | 25.1 | 6.46 | 4.37 | 12.9 | 2.09 | 2.4 | 6.17 | 13.8 | 18.2 | 19.5 | 3.89 | 6.31 |
| Cc1ccnc2nc(-c3ccc(Cl)cc3)cc(O)c12 | 4.8 | 3.98 | 3.72 | 1.78 | 5.13 | 1.32 | 0.759 | 3.72 | 3.16 | 2.88 | 5.37 | 3.47 | 4.57 |
| COc1ccc(-c2cc(O)c3cccnc3n2)cc1 | > 40 | 56.2 | 17.8 | 12.9 | 38 | 20.9 | 20 | 26.3 | 30.2 | 31.6 | 64.6 | 34.7 | 53.7 |
| COc1ccc(-c2cc(O)c3ccc(C)nc3n2)cc1 | > 40 | > 100 | > 100 | > 100 | 91.2 | 55 | 42.7 | > 100 | > 100 | > 100 | 89.1 | 47.9 | > 100 |
| COc1ccccc1-c1cc(O)c2cccnc2n1 | > 40 | 36.3 | 27.5 | 38.9 | 40.7 | 20 | 39.8 | 38.9 | 47.9 | 29.5 | 23.4 | 31.6 | 67.6 |
| COc1ccc(/C=C\c2cc(OC)c(OC)c(OC)c2)cc1O [COMBRETASTATIN A4] |  |  |  |  | 0.00661 |  |  |  |  |  |  |  |  |
| Cc1ccc2c(O)cc(-c3ccc(Cl)cc3)nc2n1 | 11 | 6.31 | 3.31 | 2.95 | 4.9 | 1 | 0.912 | 4.47 | 2.57 | 1.66 | 4.57 | 4.37 | 4.79 |
| COc1cccc(-c2cc(O)c3ccccc3n2)c1 |  | 5.13 |  | 2.09 | 6.17 |  |  | 3.98 |  |  |  |  | 9.55 |
| Cc1ccc2c(O)cc(-c3ccc(F)cc3)nc2n1 | > 40 | 41.7 | 33.9 | 14.8 | 32.4 | 11.7 | 5.89 | 33.9 | 32.4 | 20.9 | 37.2 | 31.6 | 37.2 |
| Cc1cnc2nc(-c3ccc(Cl)cc3)cc(O)c2c1 | 2 | 6.31 | 2.82 | 2.24 | 3.72 | 0.562 | 0.603 | 3.89 | 2.24 | 1.15 | 2.4 | 2.19 | 3.02 |
| Cc1ccc(-c2cc(O)c3c(C)cc(C)nc3n2)cc1 | 9.8 |  |  |  |  |  |  |  |  |  |  |  |  |
